Reference: article PMC12668289 (RSC Chemical Biology, 2025)
Values joined by “and” are separate entries in the source; they are usually repeats but may differ in a detail not shown here. Equal entries are not always repeated.

Columns and labels:
[1] = test system: HepG2 cell line stably expressing a Fluc reporter; experiment: BL spectra in live HepG2 cells stably expressing Fluc; assay type: cell-based, human; settings: live HepG2, DMEM with 25 mM HEPES-NaOH pH 7.0, 37 °C, 100 µM
Description: (§1) mM purified luciferases into the reaction tube and the bioluminescence signals were monitored until it decayed to the background level.
The QY value was calculated from the measured total numbers of photon emission from the reaction of each D-LH 2 analogue with […]
1.6 Mammalian cell line culture and bioluminescence assays
Human embryotic kidney (HEK293T) cells, human hepatocyte carcinoma cancer (HepG2) cells, human cervical carcinoma (HeLa) cells, and Abelson leukemia virus-transformed cell line derived from BALB/c mice (RAW264.7) cells (American Type Culture Collection, USA) were grown in Dulbecco’s Modified Eagle Medium (DMEM) in low glucose supplemented with 10% (v/v) heat-inactivated fetal bovine serum (FBS) plus 1% (w/v) penicillin-streptomycin. Four types of cells were maintained at 37 °C with 5% CO2. For transient transfection, […]
supplemented with 10% (v/v) heat-inactivated FBS. Before transfection, the cultured medium was removed and added a fresh minimal essential medium with reduced amount of serum (opti-MEMTM) to each well. Cells were transfected by adding 0.07 pmol of pGL4.13 [luc2/SV40] as a target vector and 0.007 pmol of pRL-TK as a control vector using lipofectamineTM3000 (Thermo Fisher Scientific) in opti-MEMTM and lipofection. Cells were incubated for 5 h and then the supernatant medium was replaced by a fresh working DMEM medium.
Cells were harvested by washing with 500 μl PBS buffer (pH 7.4). The cells were detached […]
freezing-thawing process. […]
kept at -80 °C until used.
The 150 µl assay reaction was carried out in 150 µl 100 mM HEPES-NaOH (pH 8.0). The 25 µl […]
100 mM HEPES-NaOH (pH 8.0). Then, the RLU signals of each D-LH 2 and analogues were compared. […]
proteins) and a substrate cocktail reagent (3 mM ATP and 6 mM MgCl2 in 100 mM HEPES pH 8.0). The detection sensitivity of crude lysate of HEK293T expressing Fluc was determined by measuring RLU of the reaction with a luminometer with concentrations under the linearity […]
After the cells reached the highest BL intensity, the dish was recorded with a highly sensitive CCD […]

Pmluc-WT [2] = experiment: Steady-state kinetics of luciferase reactions (luminometer); assay type: biochemical, Pyrocoelia miyako; settings: for Substrate inhibition: concentration range tested 0-300; for appKm: pH 8.0, 25 °C; for Relative kcat: relative to 2a compound
Description: (§2) 1.5 Bioluminescence characterizations
(§3) Reactions of luciferases, including Photinus pyralis luciferase (Fluc), Phrixothrix hirtus luciferase (SLR), Pyrearinus termitilluminans […]
(§4) mM D-LH 2 analogues, 3 mM ATP, 6 mM MgCl2, and 10 µM luciferase in 0.2 ml of 100 mM HEPES-NaOH pH 8.0. The bioluminescence (BL) emission characteristics were recorded using a microplate reader in a BL mode (Thermo Scientific, Varioskan, LUX multimode). […]
BL of the
(§5) The reactions were initiated by mixing 25 µl of premixed solution of luciferases/D-LH 2 analogues with 125 µl of 3 mM ATP and 6 mM MgCl2 in 100 mM HEPES-NaOH (pH 8.0). The light intensity (relative light unit, RLU) during 0-300 sec was then collected to represent the overall luciferase activity which was further used for calculating kinetic parameters from the Michaelis-Menten equation. […]

SLR (HepG2) = experiment: Sensitivity of live reporter cell detection (LOD of cell number); assay type: cell-based, human
Pmluc-WT [3] = experiment: BL emission spectra of luciferase-luciferin reactions; assay type: biochemical, Pyrocoelia miyako; settings: 100 mM HEPES pH 8.0, 25 °C
Description: as §2, §3, §4
sphere-based multichannel spectrometer with a charge-coupled device (CCD) detector. […]

Fluc = Fluc (Photinus pyralis, UniProt P08659); experiment: biochemical; assay type: binding; settings: ITC; for G (free energy of binding) / H (enthalpy of binding): 25 °C; for Kd: Table S9
Chain of Fluc (P08659 whole entry): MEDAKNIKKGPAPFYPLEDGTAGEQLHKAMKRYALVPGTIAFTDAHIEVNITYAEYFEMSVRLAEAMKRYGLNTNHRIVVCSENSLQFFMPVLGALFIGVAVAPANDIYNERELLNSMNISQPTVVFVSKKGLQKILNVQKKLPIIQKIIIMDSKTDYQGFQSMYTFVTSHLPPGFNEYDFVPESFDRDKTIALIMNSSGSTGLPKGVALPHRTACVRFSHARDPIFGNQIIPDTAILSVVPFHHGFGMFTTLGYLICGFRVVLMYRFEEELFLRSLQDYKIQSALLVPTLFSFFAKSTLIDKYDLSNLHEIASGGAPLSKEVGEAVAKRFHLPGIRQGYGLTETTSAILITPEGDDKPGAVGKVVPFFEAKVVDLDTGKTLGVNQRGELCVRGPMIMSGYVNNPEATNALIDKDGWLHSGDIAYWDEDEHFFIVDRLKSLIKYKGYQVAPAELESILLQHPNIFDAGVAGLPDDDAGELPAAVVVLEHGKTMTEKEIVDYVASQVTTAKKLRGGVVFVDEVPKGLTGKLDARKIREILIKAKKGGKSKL

Eluc = experiment: Steady-state kinetics of luciferase reactions (luminometer); assay type: biochemical, Pyrearinus termitilluminans; settings: for Substrate inhibition: concentration range tested 0-300; for appKm: pH 8.0, 25 °C
Description: as §2, §3, §4
BL of the
as §5

SLR = experiment: Bioluminescence quantum yield measurement; assay type: biochemical, Phrixothrix hirtus
Description: as §2, §3
mM D-LH 2 analogues, 3 mM ATP, 6 mM MgCl2, and 10 µM luciferase in 0.2 ml of 100 mM HEPES-NaOH pH 8.0. […]
A reference light source was used for calibrating a sphere spectrometer equipped with a cooled CCD detector.
The absolute responsivity of each luciferase-luciferin reaction was calculated based on a linear standardization between total photon flux measured using the sphere spectrometer equipped with a cooled CCD detector and relative count values measured by a luminometer. Total photons emitted from the bioluminescence reaction of each luciferase-luciferin pair were measured using a calibrated luminometer. A reaction containing 0.5-5 nM of each luciferin, 3 mM ATP, 3 mM MgCl2 in 100 mM Tris-HCl (total volume of 200 µl) was placed into the luminometer and background signals were recorded. The reaction was then initiated by adding 20 µl of 0.5 […]
as §1

SLR (HeLa) = experiment: Sensitivity of live reporter cell detection (LOD of cell number); assay type: cell-based, human
Fluc (HepG2) = experiment: as above; assay type: cell-based, human; settings: 100 µM, 30 min
[4] = F2 (red filter, >620 nm long-pass)

O=C(O)[C@H]1CSC(c2nc3ccc(O)cc3s2)=N1 [Compound 2a, D-luciferin, reference compound]
BL spectrum peak in live cells [1]: 604 nm | Substrate inhibition (Pmluc-WT [2]): > 4 µM | appKm (Pmluc-WT [2]): 0.1 µM | Limit of detection (LOD), cells (SLR (HepG2); F0 (no filter)): 802 cells | Limit of detection (LOD), cells (SLR (HepG2); F2 (red filter)): 1071 cells | Bioluminescence wavelength (BLλ) (Pmluc-WT [3]): 554 nm | N site (Fluc): 1.00 | Substrate inhibition (Eluc): > 1e+06 µM | appKm (Eluc): 0.1 µM | Quantum yield (SLR): 0.16 and 0.160 ± 0.005 | Limit of detection (LOD), cells (SLR (HeLa); F0 (no filter)): 1352 cells | Limit of detection (LOD), cells (SLR (HeLa); F2 (red filter)): 1268 cells | Limit of detection (LOD), cells (Fluc (HepG2); F0 (no filter)): 601 cells | Limit of detection (LOD), cells (Fluc (HepG2); [4]): 897 cells

Cc1cc2nc(C3=N[C@@H](C(=O)O)CS3)sc2cc1O [Compound 2b, 5’-methyl-D-luciferin]
BL spectrum peak in live cells [1]: 609 nm | Substrate inhibition (Pmluc-WT [2]): > 2 µM | appKm (Pmluc-WT [2]): 0.4 µM | Relative kcat (Pmluc-WT [2]): 110.0 | Limit of detection (LOD), cells (SLR (HepG2); F0 (no filter)): 643 cells | Limit of detection (LOD), cells (SLR (HepG2); F2 (red filter)): 783 cells | Bioluminescence wavelength (BLλ) (Pmluc-WT [3]): 608 nm | N site (Fluc): 0.70 | G (free energy of binding) (Fluc): -6.70 kcal/mol | H (enthalpy of binding) (Fluc): -1.83 kcal/mol | Kd (Fluc): 13.4 µM | Substrate inhibition (Eluc): > 8 µM | appKm (Eluc): 0.7 µM | Quantum yield (SLR): 0.19 and 0.190 ± 0.005 | Limit of detection (LOD), cells (SLR (HeLa); F0 (no filter)): 973 cells | Limit of detection (LOD), cells (SLR (HeLa); F2 (red filter)): 826 cells | Limit of detection (LOD), cells (Fluc (HepG2); [4]): 795 cells

Cc1cc2nc(C3=N[C@@H](C(=O)O)CS3)sc2c(C)c1O [Compound 2c, 5’,7’-di-methyl-D-luciferin]
BL spectrum peak in live cells [1]: 638 nm | Substrate inhibition (Pmluc-WT [2]): > 8.3 µM | appKm (Pmluc-WT [2]): 1.8 µM | Relative kcat (Pmluc-WT [2]): 7.7 | Limit of detection (LOD), cells (SLR (HepG2); F0 (no filter)): 500 cells | Limit of detection (LOD), cells (SLR (HepG2); F2 (red filter)): 613 cells | Bioluminescence wavelength (BLλ) (Pmluc-WT [3]): 631 nm | N site (Fluc): 0.80 | G (free energy of binding) (Fluc): -6.08 kcal/mol | H (enthalpy of binding) (Fluc): -3.20 kcal/mol | Kd (Fluc): 35.1 µM | Substrate inhibition (Eluc): > 12.5 µM | appKm (Eluc): 3.5 µM | Relative kcat (Eluc; relative to 2a compound): 0.3 | Quantum yield (SLR): 0.16 and 0.160 ± 0.003 | Limit of detection (LOD), cells (SLR (HeLa); F0 (no filter)): 1437 cells | Limit of detection (LOD), cells (SLR (HeLa); F2 (red filter)): 707 cells | Limit of detection (LOD), cells (Fluc (HepG2); F0 (no filter)): 713 cells
